Measurements reported in the supplement of paper PMC4862054.

Key:
Conditions in all cases: incubation time: 72 h
MDA-MB-436 [1] = test: normalised response (% of control), CellTox Green; higher = less cell death (100 = DMSO, 0 = benzethonium chloride kill control)
Procedure, shortened: (§1)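 CellTox Green fluorescence (485/520 nm) and, after 10 min at room temperature, CellTiter-Glo luminescence were read from breast cancer cell lines incubated 72 h in 384-well plates. Cells were seeded as 20 µl suspension onto compound at 5 concentrations in 10-fold steps over a 10,000-fold range chosen per compound. Each plate was normalised to 0.1 % DMSO (100) and a positive kill control (0). Values are normalised signals, one per concentration.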

MFM-223 [2] = test: as above
Procedure, shortened: as §1

BT-474 [3] = test: as above
Procedure, shortened: as §1

Hs578T [4] = test: as above
Procedure, shortened: as §1

MCF-10A [5] = test: as above
Procedure, shortened: as §1

CAL-51 [6] = test: as above
Procedure, shortened: as §1

HCC1599 [7] = test: as above
Procedure, shortened: as §1

CAL-148 [8] = test: as above
Procedure, shortened: as §1

MDA-MB-468 [9] = test: as above
Procedure, shortened: as §1

MDA-MB-231 [10] = test: as above
Procedure, shortened: as §1

HDQ-P1 [11] = test: as above
Procedure, shortened: as §1

HCC1143 [12] = test: as above
Procedure, shortened: as §1

CAL-85-1 [13] = test: as above
Procedure, shortened: as §1

DU-4475 [14] = test: as above
Procedure, shortened: as §1

HCC1937 [15] = test: as above
Procedure, shortened: as §1

BT-549 [16] = test: as above
Procedure, shortened: as §1

CAL-120 [17] = test: as above
Procedure, shortened: as §1

MDA-MB-453 [18] = test: as above
Procedure, shortened: as §1

MDA-MB-436 [19] = test: normalised response (% of control), CellTiter-Glo; higher = more viable cells (100 = DMSO, 0 = benzethonium chloride kill control)
Procedure, shortened: as §1

MFM-223 [20] = test: as above
Procedure, shortened: as §1

BT-474 [21] = test: as above
Procedure, shortened: as §1

Hs578T [22] = test: as above
Procedure, shortened: as §1

MCF-10A [23] = test: as above
Procedure, shortened: as §1

CAL-51 [24] = test: as above
Procedure, shortened: as §1

HCC1599 [25] = test: as above
Procedure, shortened: as §1

CAL-148 [26] = test: as above
Procedure, shortened: as §1

MDA-MB-468 [27] = test: as above
Procedure, shortened: as §1

MDA-MB-231 [28] = test: as above
Procedure, shortened: as §1

SK-BR-3 = test: as above
Procedure, shortened: as §1

HDQ-P1 [29] = test: as above
Procedure, shortened: as §1

HCC1143 [30] = test: as above
Procedure, shortened: as §1

CAL-85-1 [31] = test: as above
Procedure, shortened: as §1

DU-4475 [32] = test: as above
Procedure, shortened: as §1

HCC1937 [33] = test: as above
Procedure, shortened: as §1

BT-549 [34] = test: as above
Procedure, shortened: as §1

CAL-120 [35] = test: as above
Procedure, shortened: as §1

MDA-MB-453 [36] = test: as above
Procedure, shortened: as §1

SMILES | normalised response (MDA-MB-436 [1]) [%] | normalised response (MFM-223 [2]) [%] | normalised response (BT-474 [3]) [%] | normalised response (Hs578T [4]) [%] | normalised response (MCF-10A [5]) [%] | normalised response (CAL-51 [6]) [%] | normalised response (HCC1599 [7]) [%] | normalised response (CAL-148 [8]) [%] | normalised response (MDA-MB-468 [9]) [%] | normalised response (MDA-MB-231 [10]) [%] | normalised response (HDQ-P1 [11]) [%] | normalised response (HCC1143 [12]) [%] | normalised response (CAL-85-1 [13]) [%] | normalised response (DU-4475 [14]) [%] | normalised response (HCC1937 [15]) [%] | normalised response (BT-549 [16]) [%] | normalised response (CAL-120 [17]) [%] | normalised response (MDA-MB-453 [18]) [%] | normalised response (MDA-MB-436 [19]) [%] | normalised response (MFM-223 [20]) [%] | normalised response (BT-474 [21]) [%] | normalised response (Hs578T [22]) [%] | normalised response (MCF-10A [23]) [%] | normalised response (CAL-51 [24]) [%] | normalised response (HCC1599 [25]) [%] | normalised response (CAL-148 [26]) [%] | normalised response (MDA-MB-468 [27]) [%] | normalised response (MDA-MB-231 [28]) [%] | normalised response (SK-BR-3) [%] | normalised response (HDQ-P1 [29]) [%] | normalised response (HCC1143 [30]) [%] | normalised response (CAL-85-1 [31]) [%] | normalised response (DU-4475 [32]) [%] | normalised response (HCC1937 [33]) [%] | normalised response (BT-549 [34]) [%] | normalised response (CAL-120 [35]) [%] | normalised response (MDA-MB-453 [36]) [%]
CN1CCN(CCOc2cc(OC3CCOCC3)c3c(Nc4c(Cl)ccc5c4OCO5)ncnc3c2)CC1 [Saracatinib] (1000 nM) | 77.6 | 93.9 | 96.4 | 83.4 | 106 | 68.5 | 96 | 99.3 | 181 | 77.6 | 86.8 | 76.8 | 68.5 | 98.9 | 86.5 | 93 | 96.6 | 101 | 93.9 | 89.7 | 71.1 | 96.1 | 41.5 | 74.3 | 119 | 84.1 | 79.2 | 64.6 | 92.7 | 53.2 | 74.6 | 61.7 | 94 | 83.3 | 89.9 | 81.9 | 88.2
Cn1cncc1[C@@](N)(c1ccc(Cl)cc1)c1ccc2c(c1)c(-c1cccc(Cl)c1)cc(=O)n2C [Tipifarnib] (1000 nM) | 94.4 | 101 | 100 | 108 | 73.9 | 57.2 | 90.8 | 96 | 105 | 103 | 102 | 110 | 98.8 | 95.6 | 45.6 | 136 | 97.4 | 107 | 65.1 | 73.8 | 80.5 | 80.6 | 86.9 | 52.2 | 111 | 66.8 | 74.9 | 90.6 | 59.4 | 76.4 | 80.5 | 110 | 66.4 | 74.5 | 75.1 | 79.4 | 73.8
CC[C@]1(O)C[C@H]2CN(CCc3c([nH]c4ccccc34)[C@@](C(=O)OC)(c3cc4c(cc3OC)N(C=O)[C@H]3[C@@](O)(C(=O)OC)[C@H](OC(C)=O)[C@]5(CC)C=CCN6CC[C@]43[C@@H]65)C2)C1 [Vincristine] (100 nM) | 73.6 | 15.3 | 75.3 | 62.5 | -44.4 | 40.1 | 82.2 | 82.8 | 38.5 | 3.37 | 93 | 94.3 | 69.3 | 100 | 62.1 | 44.2 | 86.3 | 97.3 | 28.6 | 45.8 | 58.5 | 24.1 | 72.7 | 46.3 | 21.6 | 47.8 | 32.9 | 53.2 | 13.6 | 79.3 | 60.9 | 40.8 | 71.1 | 72.8 | 42.1 | 63.2 | 57.9
